Data taken from patent publication US8293681B2, “Seed treatment agent and method for protecting plant” (Sumitomo Chemical Company, Ltd., priority 2008, dated 2012).

How the values were obtained:
[1] = tested on: root rot on pea (Fusarium solani f. sp. pisi); experiment: Test Example 1: seed treatment of pea, control of root rot; format: in vivo; conditions: pea seeds, 10 gai/100 kg seed
Procedure: (§1) 10 μl of a dimethylsulphoxide solution of the compound (1b) and 10 g of pea (Waiseiakabanakinusaya) seeds were put in a 50 ml tube and mixed to allow the compound (1b) to stick to the surface of the seeds and then the mixture was allowed to stand still overnight to obtain treated seeds of the present invention. A plastic pot was filled with sandy soil, and the treated seeds of the present invention were disseminated. Then the seeds were covered with sandy soil, which had been mixed with a bran medium on which root rot on pea (Fusarium solani f. sp. pisi) had been allowed to grow and the peas were grown in a greenhouse of from 22 to 24° C. for six days while sprinkling water appropriately. A spore suspension of root rot on pea was perfused on the root of the seedlings for inoculation and the peas were allowed to grow in a greenhouse for further six days and the control effect was checked.
Besides, the incidence of disease was also checked in the case of seeds without the treatment with the agent in order to calculate the control value.
(§2) The incidence of disease was calculated by Equation 1 and the control value was calculated by Equation 2 based on the incidence of disease.
Incidence of disease=(Number of no budding seeds and number of seedlings in which development of disease was observed)×100/(Number of total disseminated seeds) “Equation 1” Control value=100×(A−B)/A “Equation 2” […]

rice 'Bakanae' disease = experiment: Test Example 2: immersion of unhulled rice seeds affected with rice 'Bakanae' disease; format: in vivo, Gibberella fujikuroi; set-up: key to Incidence of disease: % of seedlings diseased: diseased×100/total seedlings; key to Control value: 100×(A−B)/A, from incidence of disease (untreated A, treated B); conditions: rice seeds immersed 24 hours; for Incidence of disease: untreated 19.2
Procedure: Incidence of disease=(Number of no budding seeds and number of seedlings in which development of disease was observed)×100/(Number of total disseminated seeds) “Equation 1” Control value=100×(A−B)/A “Equation 2” The flowable of the compound (1a) and the flowable of the compound (1b) were diluted with water to prepare an agent solution containing the compound (1a) or compound (1b). Unhulled rice seeds (Tanginbozu) affected with rice ‘Bakanae’ disease was immersed in the agent solution for 24 hours and then the unhulled rice seeds were taken out of the agent solution and air dried to obtain treated seeds. The treated seeds were immersed in water at 12° C. for 4 days and subsequently in water at 30° C. overnight. A plastic pot was filled with sandy soil, and the treated seeds were disseminated and allowed to grow in a greenhouse at 26° C. for 23 days to investigate the control effect. Besides, the incidence of disease was also checked in the case of seeds without the treatment with the agent in order to calculate the control value. The incidence of disease was calculated by Equation 3 and the control value was calculated based on the incidence of disease by Equation 2. Incidence of disease=(Number of seedlings in which development of disease was observed)×100/(Number of total seedlings) “Equation 3”

[2] = tested on: root rot on pea (Fusarium solani f. sp. pisi); experiment: Test Example 3: seed treatment of pea, control of root rot, with reference compounds; format: in vivo; set-up: key to Incidence of disease: % = (non-budding seeds + diseased seedlings)×100/total seeds; key to Control value: control value = 100×(A−B)/A, A = untreated, B = treated incidence; conditions: pea seeds; for Incidence of disease: untreated 53
Procedure: Incidence of disease=(Number of no budding seeds and number of seedlings in which development of disease was observed)×100/(Number of total disseminated seeds) “Equation 1” Control value=100×(A−B)/A “Equation 2”
as §1, with “of the compound (1a) or compound (1b)” for “of the compound (1b)”, “allow the compound (1a) or compound (1b)” for “allow the compound (1b)”
Besides, the incidence of disease was also checked in the case of seeds without the treatment with the agent in order to calculate the control value. Also, 2-[2-(2-methyl-phenoxymethyl)-phenyl]-2-methoxy-N-methyl-acetamide, which is described in International Publication WO 95/27,693 and hereinafter referred to as compound A, and 2-[2-(2-chloro-5-methyl-phenoxymethyl)-phenyl]-2-methoxy-N-methyl-acetamide, which is described in International Publication WO 96/07,633 and hereinafter referred to as compound B, were used as reference compounds.
as §2

Row | Compound | Control value [1] | Incidence of disease ([1]; untreated 33) | Control value (rice 'Bakanae' disease; 62.5 ppm) | Incidence of disease (rice 'Bakanae' disease; 62.5 ppm) | Control value (rice 'Bakanae' disease; 125 ppm) | Incidence of disease (rice 'Bakanae' disease; 125 ppm) | Control value (rice 'Bakanae' disease; 500 ppm) | Incidence of disease (rice 'Bakanae' disease; 500 ppm) | Control value (rice 'Bakanae' disease; 2000 ppm) | Incidence of disease (rice 'Bakanae' disease; 2000 ppm) | Control value ([2]; 2.5 gai/100 kg seed) | Incidence of disease ([2]; 2.5 gai/100 kg seed) | Control value ([2]; 10 gai/100 kg seed) | Incidence of disease ([2]; 10 gai/100 kg seed)
1 | CNC(=O)C(OC)c1ccccc1COc1cc(C)ccc1C (racemic) [Compound (1b)] | 100 | 0 | 95 | 0.9 | 93 | 1.4 | 92 | 1.6 | 93 | 1.3 | 81 | 10 | 100 | 0
2 | CNC(=O)[C@H](OC)c1ccccc1COc1cc(C)ccc1C [Compound (1a)] | – | – | – | – | – | – | – | – | – | – | 97 | 4 | 100 | 0
3 | CNC(=O)C(OC)c1ccccc1COc1ccccc1C (centres unmarked) [Compound A, 2-[2-(2-methyl-phenoxymethyl)-phenyl]-2-methoxy-N-methyl-acetamide, reference compound] | – | – | – | – | – | – | – | – | – | – | 57 | 23 | 87 | 7
4 | CNC(=O)C(OC)c1ccccc1COc1cc(C)ccc1Cl (centres unmarked) [Compound B, 2-[2-(2-chloro-5-methyl-phenoxymethyl)-phenyl]-2-methoxy-N-methyl-acetamide, reference compound] | – | – | – | – | – | – | – | – | – | – | 62 | 20 | 81 | 10
